Each structure is given as a SMILES string. In brackets after ≈: the same amount, converted by molar mass. Read-outs that look alike come from different tables or passages of the source.

On the set-up of data set [1]: method as in PMID 29751694. The note with it: cited from earlier work.
A short description of data set [2]: NMR saturation transfer difference (STD) study of tacrolimus/HPβCD binding. The note with it: D2O, read-out: Kd of tacrolimus/HPβCD binding equilibrium. As to the method:
NMR experiments were conducted at two different temperature conditions, 278 and 298 K, on a Bruker NEO 17.6 T spectrometer (proton resonance 750 MHz) (Billerica, MA, USA), equipped with a ^1H/^13C/^15N triple resonance PA-TXI probe with a deuterium lock channel and a shielded Pulse Field Gradient (PFG) z-gradient. The spectrometer control software was TopSpin 4.0 (Billerica, MA, USA, 2020). The reported chemical shifts are referenced to the lock deuterium solvent. Spectra were processed and analyzed using Mestrenova v14.0 software (Mestrelab Research S.L., Santiago de Compostela, Spain, 2019).
One-dimensional saturation transfer difference ^1H spectra (STD) were measured. The experiment consisted of a selective saturation pulse train, a WET selective solvent suppression module and a 90-degree hard-pulse followed by fid (free induction decay) acquisition. The selective saturation consisted of a train of soft Gaussian-shaped pulses of 50-ms duration with a 1-ms interpulse delay. The selective saturation was applied during 2 s at a specific frequency of the ^1H spectrum, covering a region of the spectrum of ± 125 Hz around the chosen frequency (i.e., ± 0.17 ppm in a 750 spectrometer). The STD^off saturation was applied at 20 ppm. […] The STD^on and STD^off scans were measured in alternate scans and subtracted by the phase cycling, providing the subtracted STD^off-on spectra. […]

A further data set has as its system T cell proliferation. On the set-up: method as in PMID 22511024. The note with it: cited from earlier work.
The next data set can be described thus: physchem. Type of data set: physicochemical. As to the method: A phase solubility diagram was used to estimate the stability constant (K) of the tacrolimus/HPβCD inclusion complex. The solubility measurements were carried out following the previous work of our research group, described by Anguiano-Igea et al.. This protocol was adjusted to the Higuchi and Connors phase solubility model. A solubility study was carried out by adding an excess amount of the tacrolimus powder to MilliQ® aqueous solutions containing increasing concentrations of HPβCD (from 0 to 400 mg/mL). The vials containing these suspensions were then shaken in a VWR incubated mini-shaker (VWR International, Radnor, PA, USA) at 25 °C and 250 rpm for 7 days until reaching an equilibrium. […]
Tacrolimus concentration was determined for each sample using an HPLC system (Agilent 1260 series; Agilent Technologies®, Santa Clara, CA, USA) equipped with a Diode Array Detector HS, a solvent delivery quaternary pump system, 400 bar maximum pressure and an autosampler. […] A 210-nm wavelength was employed for the tacrolimus quantification. […]
These constants values were calculated using the following Equation (1):S = S0 +(K1:1·S0 + K1:1·K1:2·S0·[HPβCD])·[HPβCD],(1) where S is the total solubility, S0 is the free drug solubility and K1:1 and K1:2 are the stability constants of the complex tacrolimus/HPβCD. […]

Details of data set [3]: method as in PMID 32599134, PMID 24015381. The note with it: cited from earlier work.

For `CC(O)COC[C@H]1O[C@@H]2O[C@H]3[C@H](O)[C@@H](O)[C@@H](O[C@H]4[C@H](O)[C@@H](O)[C@@H](O[C@H]5[C@H](O)[C@@H](O)[C@@H](O[C@H]6[C@H](O)[C@@H](O)[C@@H](O[C@H]7[C@H](O)[C@@H](O)[C@@H](O[C@H]8[C@H](O)[C@@H](O)[C@@H](O[C@H]1[C@H](O)[C@H]2O)O[C@@H]8COCC(C)O)O[C@@H]7COCC(C)O)O[C@@H]6COCC(C)O)O[C@@H]5COCC(C)O)O[C@@H]4COCC(C)O)O[C@@H]3COCC(C)O` (stereo partly drawn) [HPβCD, 2-hydroxypropyl-β-cyclodextrin], in data set [1], the “surface tension in solution” value was 54.8–57.5 mN/m.
On to `C=CC[C@@H]1/C=C(\C)C[C@H](C)C[C@H](OC)[C@H]2O[C@@](O)(C(=O)C(=O)N3CCCC[C@H]3C(=O)O[C@H](/C(C)=C/[C@@H]3CC[C@@H](O)[C@H](OC)C3)[C@H](C)[C@@H](O)CC1=O)[C@H](C)C[C@@H]2OC` [Tacrolimus], for which the Kd in data set [2] (278 K, inferred from STD response) was less than 1 mM. For the same molecule, the Kd in data set [2] (298 K, inferred from absence of STD response) is greater than 10 mM. The “immunosuppressive activity, times more potent than cyclosporine A” value in the data set with T cell proliferation was 100 times. Also, in “physchem”, the “K1:2 stability constant of tacrolimus/HPβCD complex” value was determined as 2.1 ± 0.6 M⁻¹ and the solubility (in general, the concentration that dissolves in the medium under given conditions) at 7 days amounted to 4 ± 0.67 µg/mL (≈ 4.97 µM). Further, in data set [3], the water solubility is 1 to 12 µg/mL.

The values are drawn from article PMC7911614, “Development and Characterization of a Tacrolimus/Hydroxypropyl-β-Cyclodextrin Eye Drop” (Pharmaceutics, 2021).
